Reference: patent US11464789B2, “Aminosterol compositions and methods of using the same for treating schizophrenia” (Enterin, Inc., priority 2018, dated 2022)
Where “and” joins values, the source holds several entries; their conditions need not be identical. Equal entries are not always repeated. Entries after “also recorded” stand apart in the source; their conditions may differ. Where two headings read alike, the source gives them in different places.

Key:
[1] = tested on: patients with PD and constipation; test: CNS symptoms in Stage 2 (UPDRS, MMSE, PDHQ, BDI-II, hallucinations); assay type: in vivo, human; conditions: 6 patients with hallucinations (5) or delusions (1) at baseline
Excerpt: (8) Beck Depression Inventory (BDI-II);
(9) Unified Parkinson's Disease Rating Scale (UPDRS), which consists of 42 items in four subscales (Part I=Non-Motor Aspects of Experiences of Daily Living (nM-EDL) (1.1 cognitive impairment, 1.2 hallucinations and psychosis, 1.3 depressed mood, Part II=Motor Aspects of Experiences of Daily Living (M-EDL), Part III=Motor Examination, and Part IV=Motor Complications;
(10) Mini Mental State Examination (MMSE);
(12) The University of Miami Parkinson's Disease Hallucinations Questionnaire (UM-PDHQ); […]
Assessments were made at baseline and at the end of the fixed dose and washout periods. Circadian system status was evaluated by continuously monitoring wrist skin temperature (Thermochron iButton DS1921H; Maxim, Dallas) following published procedures (Sarabia et al. 2008). […]

[2] = Pharmacokinetics of orally administered squalamine (ENT-01), Phase 2 trial; assay type: in vivo, human; conditions: for oral bio-availability (estimated): based on pharmacokinetic behavior of intravenously administered squalamine in prior clinical studies; for systemic absorption following oral administration: this study, PD patients
Experimental: PK data were collected on the 10 patients enrolled in Stage 1 and 10 patients enrolled in Stage 2 to determine the extent of systemic absorption. In Stage 1, PK data were obtained at each visit, pre-medication, at 1, 2, 4, 8 and 24 hours (Table 10). In Stage 2, PK was measured on days 1 and 6 of the randomization period pre-medication, at 1, 2, 4 and 8 hours (Table 11).
The mean Cmax, Tmax and T1/2 and AUC of the squalamine ion following squalamine (ENT-01) oral dosing for Stage 1 patients. The PK analyses are only approximate, as the lower limit of the validated concentration range was 10 ng/ml; most of the measured concentrations fell below that value. The mean Cmax, Tmax and T1/2 and AUC of the squalamine ion following squalamine (ENT-01) oral dosing for Stage 2 patients. The PK analyses are only approximate, as the lower limit of the validated concentration range was 0.5 ng/ml.

[3] = mice, prior studies; cited from earlier work
[4] = tested on: patients with PD and constipation; test: Safety and adverse event profile, Phase 2 trial; assay type: in vivo, human
Experimental: (§1) Tolerability limits included diarrhea or vomiting.
(§2) In Stage 2, 34 patients were evaluated.

[5] = tested on: patients with PD and constipation; test: Effect on bowel function, Phase 2 trial (Stage 1 single dose, Stage 2 daily dosing); assay type: in vivo, human
Experimental: Overview: The subjects of the trial all had PD and experienced constipation, which is a characteristic of PD. The primary objectives of the trial involving patients with PD and constipation were to evaluate the safety and pharmacokinetics of oral squalamine (ENT-01) and to identify the dose required to improve bowel function, which was used as a clinical endpoint.
ENT-01 is the phosphate salt of squalamine. For this study it has been formulated as a small 25 mg coated tablet. Dosing ranged from 25 mg to 250 mg, with dosages greater than 25 mg requiring multiple pills (e.g., 50 mg=two 25 mg pills). Dosing instructions=take 60 mins before breakfast with 8 oz. water. The dose was taken by each patient upon awakening on an empty stomach along with 8 oz. of water simultaneously to dopamine. The subject was not allowed to ingest any food for at least 60 minutes after study medication. The compound is highly charged and will adsorb to foodstuffs, so it was administered prior to feeding.
Following successful screening, all subjects underwent a 14-day run-in period where the degree of constipation was assessed through a validated daily log (Zinsmeister et al. 2013) establishing baseline CSBMs/week. Subjects with an average of <3 CSBMs/week proceeded to dosing.
as §1, §2
The primary efficacy outcome variable was whether or not a subject was a “success” or “failure”. This is an endpoint based on subject diary entries for the “fixed dose” period prior to the endpoint assessment defined as average complete stool frequency increase by 1 or more over baseline, or 3 or more complete spontaneous stools/week. The subject was deemed a “success” if s/he met one or more of the criteria listed above, otherwise the subject was deemed a “failure”. The primary analysis was based on all subjects with a baseline assessment and an assessment at the end of the “fixed-dose” period and was a comparison of the proportion of successes with 0.10 (the null hypothesis corresponding to no treatment effect).

[6] = rats, prior studies; cited from earlier work
[7] = tested on: patients with PD and constipation; test: Sleep diary (total sleep time, REM-behavior disorder); assay type: in vivo, human; conditions: beyond 125 mg
Experimental: FIG. 3 is a chart of total sleep time in relation to squalamine dose. Total sleep time was obtained from the sleep diary by subtracting awake time during the night from total time spent in bed. Total sleep time per night was logged for each patient at baseline, each dosing period and at washout, and the means were determined. The light grey bar represents the baseline value for each cohort at a given dose level and the dark grey bar represents the value for the same cohort at the stated dose of squalamine (ENT-01). The number of patients represented at each value are: Baseline, 33; 75 mg, 21; 100 mg, 28; 125 mg, 18; 150 mg, 15; 175 mg, 12; 200 mg, 7; 225 mg, 3; 250 mg, 2; washout, 33. P values were as follows: 75 mg, p=0.4; 100 mg, p=0.1; 125 mg, p=0.3; 150 mg, p=0.07; 175 mg, p=0.03; 200 mg, p=0.3; 225 mg, p=0.5; 250 mg, p=0.3; wash-out, p=0.04 (paired t test).
(5) Sleep Diary (participants completed a sleep diary on a daily basis throughout the study. The diaries included time into bed and estimated time to sleep as well as wake time and duration during the night); […]

[8] = dogs, prior studies; cited from earlier work
[9] = tested on: patients with PD and constipation; test: Circadian rhythm of wrist skin temperature; assay type: in vivo, human; conditions: for effect on circadian rhythm of skin temperature: oral administration, 12 patients with evaluable data
Experimental: (6) I-Button Temperature Assessment. The I-Button is a small, rugged self-sufficient system that measures temperature and records the results in a protected memory section. The Thermochron I-Button DS1921H (Maxim Integrated, Dallas, Tex.) was used for skin temperature measurement. I-Buttons were programmed to sample every 10 mins., and attached to a double-sided cotton sport wrist band using Velcro, with the sensor face of the I-Button placed over the inside of the wrist, on the radial artery of the dominant hand. Subjects removed and replaced the data logger when necessary (i.e., to have a bath or shower). The value of skin temperature assessment in sleep research is that the endogenous skin warming resulting from increased skin blood flow is functionally linked to sleep propensity. From the collected data, the mesor, amplitude, acrophase (time of peak temperature), Rayleight test (an index of interdaily stability), mean waveforms are calculated);
Assessments were made at baseline and at the end of the fixed dose and washout periods. Circadian system status was evaluated by continuously monitoring wrist skin temperature (Thermochron iButton DS1921H; Maxim, Dallas) following published procedures (Sarabia et al. 2008).
Circadian rhythm of skin temperature was evaluable in 12 patients (i.e., those who had recordings that extended from baseline through washout). Circadian system functionality was evaluated by continuously monitoring wrist skin temperature using a temperature sensor (Thermochron iButton DS1921H; Maxim, Dallas, Tex.) (Sarabia et al. 2008). A nonparametric analysis was performed for each participant to characterize DST as previously described (Sarabia et al. 2008; Ortiz-Tudela et al. 2010).
Briefly, this analysis includes the following parameters: (i) the inter-daily stability (the constancy of 24-hour rhythmic pattern over days, IS); (ii) intra-daily variability (rhythm fragmentation, IV); (iii) average of 10-minute intervals for the 10 hours with the minimum temperature (L10); (iv) average of 10-minute intervals for the 5 hours with the maximum temperature (M5) and the relative amplitude (RA), which was determined by the difference between M5 and L10, divided by the sum of both. Finally, the Circadian Function Index (CFI) was calculated by integrating IS, IV, and RA. Consequently, CFI is a global measure that oscillates between 0 for the absence of circadian rhythmicity and 1 for a robust circadian rhythm (Ortiz-Tudela et al. 2010).

[10] = tested on: IPANs (intrinsic primary afferent neuron); conditions: isolated bowel segment, PD mouse model; increasing frequency of propulsive peristaltic contractions; cited from earlier work
[11] = prior studies; systemic blood levels one thousand-fold greater than oral; cited from earlier work
[12] = tested on: mouse models of PD; conditions: orally administered, mice with constipation due to overexpression of human αS (West et al, manuscript in preparation); cited from earlier work
[13] = Stage 2, fixed dose, n = 34, weekly average
[14] = Stage 2, fixed dose, n = 34, weekly average, listed as aminosterol

CC(C)[C@@H](CC[C@@H](C)[C@H]1CC[C@H]2[C@@H]3[C@H](O)C[C@H]4C[C@@H](NCCCNCCCCN)CC[C@]4(C)[C@H]3CC[C@]12C)OS(=O)(=O)O (single isomer, unassigned) [squalamine (ENT-01), squalamine]
patients in whom hallucinations and delusions improved or disappeared during treatment [1]: improved or disappeared during treatment in five | patients in whom hallucinations and delusions improved or disappeared during treatment ([1]; listed as aminosterol): improved or disappeared during treatment in five | oral bio-availability (estimated) [2]: less than 0.3% | oral bio-availability (estimated) ([2]; listed as aminosterol): < 0.3% | systemic absorption following oral administration ([2]; listed as aminosterol): negligible | systemic absorption following oral administration [3]: negligible | Diarrhea, Mild ([4]; Stage 2 (34 dosed)): 12 (35)^ n, % | Difficulty falling asleep, Mild ([4]; Stage 2 (34 dosed)): 1 (3)^ n, % | Eye infection, Mild ([4]; Stage 2 (34 dosed)): 1 (3)^ n, % | Flatulence, Mild ([4]; Stage 2 (34 dosed)): 1 (3)^ n, % | Nausea, Mild ([4]; Stage 2 (34 dosed)): 18 (52)^ n, % | Urinary retention, Mild ([4]; Stage 2 (34 dosed)): 1 (3)^ n, % | Urinary tract infection, Mild ([4]; Stage 2 (34 dosed)): 1 (3)^ n, % | Worsening hemorrhoid, Mild ([4]; Stage 2 (34 dosed)): 1 (3)^ n, % | patients with worsening of hemorrhoids ([4]; all dosed, 1/44): 2.2% | patients with worsening of acid reflux ([4]; all dosed, 2/44): 4.5% | patients with flatulence ([4]; all dosed, 3/44): 6.8% | patients with vomiting ([4]; all dosed, 3/44): 6.8% | patients with dizziness ([4]; all dosed, 8/44): 18% | patients with abdominal pain ([4]; all dosed, 11/44): 32% | Serious adverse event (SAE) ([4]; withdrawal period, considered unrelated to study medication): One patient had a lower GI bleed | CSBM (mean, SD) [5, 13]: 3.8 CSBM/week and 3.8 (2.4) CSBM/week | Suppository use / rescue medication (mean, SD) [5, 13]: 0.3 /week and 0.3 (0.67) /week | CSBM (mean, SD) [5, 14]: 3.8 CSBM/week | SBM (mean, SD) [5, 14]: 4.5 | Suppository use / rescue medication (mean, SD) [5, 14]: 0.3 /week | prokinetic dose (mean) ([5]; patients with baseline ≥1 CSBM/week): 120 mg | systemic absorption following oral administration [6]: negligible | total sleep time vs baseline [7]: consistently higher than baseline | systemic absorption following oral administration [8]: negligible | effect on circadian rhythm of skin temperature [9]: significant positive impact; also recorded: improved all markers of healthy circadian function | effect on circadian rhythm of skin temperature ([9]; listed as Aminosterol): improved all markers of healthy circadian function | improvement of CFI during wash-out ([9]; wash-out period, p=0.004): persisted | improvement of IS during wash-out ([9]; wash-out period, p=0.008): persisted

CC(C)[C@@H](CC[C@@H](C)[C@H]1CC[C@H]2[C@@H]3[C@H](O)C[C@H]4C[C@@H](NCCCNCCCCN)CC[C@]4(C)[C@H]3CC[C@]12C)OS(=O)(=O)O [squalamine]
systemic absorption following oral administration [2]: not significantly absorbed into the systemic circulation | effect on IPANs of the ENS [10]: excitation of IPANs | gastrointestinal motility after intravenous administration [11]: not associated with increased gastrointestinal motility | gastro-intestinal motility [12]: stimulates gastro-intestinal motility
